Measured values published in BindingDB's records for doi:10.1016/j.bmc.2007.01.044 (University of San Francisco, 2007).

target: T1, UDP-3-O-acyl-N-acetylglucosamine deacetylase (Aquifex aeolicus (strain VF5), UniProt O67648); assay: Ligand Affinity Measurements; settings: pH 7; 30 °C
T1 sequence (O67648 whole entry): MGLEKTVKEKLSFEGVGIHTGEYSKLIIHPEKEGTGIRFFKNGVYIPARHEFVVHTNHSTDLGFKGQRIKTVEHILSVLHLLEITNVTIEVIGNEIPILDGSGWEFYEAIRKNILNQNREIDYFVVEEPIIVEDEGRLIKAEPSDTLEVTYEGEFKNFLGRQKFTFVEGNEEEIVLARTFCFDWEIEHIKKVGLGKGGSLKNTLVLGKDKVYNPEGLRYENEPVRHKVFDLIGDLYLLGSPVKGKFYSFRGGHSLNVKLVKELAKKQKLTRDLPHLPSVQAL
Procedure: Ligand binding to A. aeolicus LpxC was assayed by isothermal titration using isothermal microcalorimeter from Microcal, Inc. (Northampton, MA). The enzyme was stripped of all metal ions, and was reconstituted with Zn2+ (1:1 ratio) by the addition of ZnSO4. The calorimeter cell contained enzyme (40 or 60 uM), and the syringe contained ligand (250 or 400 uM). A series of 30 injections of 8 ul each were performed at 180-s intervals. Titrations of aliphatic compounds into buffer were also performed as control experiments using identical conditions. Data were fit to a single binding site model using Origin v. 2.9.

Kd [µM] | Structure (SMILES)
7 | CCCCCCCCCC(=O)O [decanoate]
> 100 | CCCCCCCC(=O)O [octanoic acid]
0.9 | CCCCCCCCCCCC(=O)O [dodecanoate]
